Experimental data reported in patent US20140377340A1, “HLA-DR BINDING PEPTIDES AND THEIR USES” (priority 2007, published 2014).

Key:
[1] = system: 15 different HLA-DR molecules; test: HLA-DR binding assays, panel of 15 different HLA-DR molecules (breadth of binding); details: number of the 15 HLA-DR molecules bound (binders: 1000 nM or better)
purified HLA DRB1*0405 = target: T1, purified HLA DRB1*0405 (Homo sapiens, UniProt P01903+P01911, A100R/A169T/D86S/F76Y/I96L/K127E/L162R/M171V/N62H/P40V/Q125Y/R42H/S133A/S149N/S66Y/V115G/V209L/W38E); test: HLA-DR radioligand binding inhibition assay, DRB1*0405; details: IC50 nM purified HLA DRB1 *0405, purified HLA DRB1*0405
T1 construct: purified from EBV transformed homozygous cell lines or single MHC allele transfected 721.221, C1R, or fibroblast lines; made in house
Method: (§1) Instead, wells of an opaque white 96-well Optiplate (Packard) are coated with 3 μg (100 μl@ 30 μg/ml) of HLA-specific antibody (Ab) that “capture” complexes of radiolabeled MHC and unlabeled peptide transferred from the molecular binding assay plate in 100 μl of 0.05% NP40/PBS. After a 3-hour incubation period, the supernatant is decanted and scintillation fluid (Microscint 20) added. Captured complexes are then measured on a microplate scintillation and luminescence counter (TopCount NXTTM; Packard).
(§2) HLA-DR purification. Fifteen distinct HLA-DR molecules were used in quantitative assays to measure the binding of peptides to solubilized HLA-DR molecules. […] Briefly, columns of inactivated Sepharose CL4B and Protein A Sepharose were used as pre-columns. HLA-DR molecules were captured by passage of lysates over LB3.1 monoclonal antibody (anti-HLA-DRA) columns. Antibody columns were washed with 10 mM Tris-HCL, pH8.0 with 1% (v/v) NP-40, followed by PBS containing 0.4% (w/v) n-octylglucoside.
(§3) Briefly, 1-10 nM of radiolabeled peptide was co-incubated for 2 days at either room temperature or 37° C. with 1 μM to 1 nM purified HLA-DR molecules in the presence of a cocktail of protease inhibitors. Assays were performed at various pH conditions, ranging from pH 4 to pH 7. […] After incubation, the percentage of HLA-DR-bound radioactivity is determined by capturing HLA-DR/peptide complexes on Optiplates (Packard Instruments, Meriden, Conn.) coated with the LB3.1 antibody and determining bound counts per minute using the TopCount microscintillation counter (Packard Instruments).

purified HLA DRB1*1501 = target: T2, purified HLA DRB1*1501 (Homo sapiens, UniProt P01903+P01911); test: HLA-DR radioligand binding inhibition assay, DRB1*1501
T2 construct: purified from EBV transformed homozygous cell lines or single MHC allele transfected 721.221, C1R, or fibroblast lines; made in house
Method: as §1, §2, §3

purified HLA DRB1*0401 = target: T3, purified HLA DRB1*0401 (Homo sapiens, UniProt P01903+P01911, A100K/A169T/F76Y/I96L/K127E/L162R/M171V/N62H/P40V/Q125Y/R42H/S133A/S149N/S66Y/V115G/V209L/W38E); test: HLA-DR radioligand binding inhibition assay, DRB1*0401; details: IC50 nM purified HLA DRB1 *0401, purified HLA DRB1*0401
T3 construct: purified from EBV transformed homozygous cell lines or single MHC allele transfected 721.221, C1R, or fibroblast lines; made in house
Method: as §1, §2, §3

purified HLA DRB1*1101 = target: T4, purified HLA DRB1*1101 (Homo sapiens, UniProt P01903+P01911, A100R/A169T/A87E/I96F/K41T/L162R/M171V/P40S/Q125H/Q178H/Q39Y/Q99D/R42S/S66Y/T262R/V115G/W38E); test: HLA-DR radioligand binding inhibition assay, DRB1*1101; details: IC50 nM purified HLA DRB1 *1101, purified HLA DRB1*1101
T4 construct: purified from EBV transformed homozygous cell lines or single MHC allele transfected 721.221, C1R, or fibroblast lines; made in house
Method: as §1, §2, §3

purified HLA DRB5*0101 = target: T5, purified HLA DRB5*0101 (Homo sapiens, UniProt P01903+Q30154); test: HLA-DR radioligand binding inhibition assay, DRB5*0101; details: IC50 nM purified HLA DRB5 *0101, purified HLA DRB5*0101
T5 construct: purified from EBV transformed homozygous cell lines or single MHC allele transfected 721.221, C1R, or fibroblast lines; made in house
Method: as §1, §2, §3

T4 sequence (P01903 26-254, other chains not shown): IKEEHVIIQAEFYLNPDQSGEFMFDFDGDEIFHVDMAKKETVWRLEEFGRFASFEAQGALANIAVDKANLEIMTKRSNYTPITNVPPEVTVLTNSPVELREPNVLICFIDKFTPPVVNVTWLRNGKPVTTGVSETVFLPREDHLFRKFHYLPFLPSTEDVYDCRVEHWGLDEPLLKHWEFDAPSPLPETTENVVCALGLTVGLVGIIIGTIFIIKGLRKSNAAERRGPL

| Total XRN [1] | SMILES | other results |
| --- | --- | --- |
| 12 | CC(C)C[C@H](NC(=O)[C@H](CO)NC(=O)[C@H](C)NC(=O)[C@H](CC(N)=O)NC(=O)[C@@H](NC(=O)[C@@H]1CCCN1C(=O)[C@H](CC(C)C)NC(=O)[C@H](Cc1ccc(O)cc1)NC(=O)[C@@H](NC(=O)[C@@H](N)CC(C)C)[C@@H](C)O)[C@@H](C)O)C(=O)N[C@@H](CO)C(=O)N[C@@H](Cc1ccccc1)C(=O)N[C@@H](CC(C)C)C(=O)N[C@@H](CCC(N)=O)C(=O)N[C@@H](CC(=O)O)C(=O)O [Peptide 9019.0031] |  |
|  | CC[C@H](C)[C@H](NC(=O)[C@H](CCC(=O)O)NC(=O)[C@@H](NC(=O)[C@H](CC(C)C)NC(=O)[C@H](CO)NC(=O)[C@H](CCCNC(=N)N)NC(=O)[C@H](CC(C)C)NC(=O)[C@H](CCC(N)=O)NC(=O)[C@H](CC(C)C)NC(=O)[C@H](CCC(=O)O)NC(=O)[C@H](CCCNC(=N)N)NC(=O)[C@H](CC(C)C)NC(=O)CNC(=O)CNC(=O)[C@@H]1CCCN1)[C@@H](C)O)C(=O)O [Peptide 9019.0038] | IC50 (purified HLA DRB1*0405): 110 nM; IC50 (purified HLA DRB1*1501): 4410 nM |
| 14 | CC[C@H](C)[C@H](NC(=O)[C@H](CCCNC(=N)N)NC(=O)CNC(=O)[C@H](CCCNC(=N)N)NC(=O)[C@@H](NC(=O)[C@@H](NC(=O)[C@H](CCC(N)=O)NC(=O)[C@H](CC(C)C)NC(=O)[C@H](CC(N)=O)NC(=O)[C@H](CCC(N)=O)NC(=O)[C@H](Cc1ccccc1)NC(=O)[C@@H](NC(=O)[C@H](CO)NC(=O)[C@@H](N)CC(C)C)C(C)C)C(C)C)[C@@H](C)CC)C(=O)N[C@@H](CC(C)C)C(=O)O [Peptide 9019.0052] |  |
| 12 | CC[C@H](C)[C@H](NC(=O)[C@H](CC(C)C)NC(=O)[C@H](C)NC(=O)[C@H](CC(C)C)NC(=O)CNC(=O)[C@H](CO)NC(=O)CNC(=O)[C@H](CC(C)C)NC(=O)[C@H](CCC(=O)O)NC(=O)[C@H](CCCNC(=N)N)NC(=O)[C@H](CC(C)C)NC(=O)[C@H](CO)NC(=O)[C@H](CCCNC(=N)N)NC(=O)[C@@H](N)CC(C)C)C(=O)N[C@@H](Cc1c[nH]cn1)C(=O)O [Peptide 9019.0057] |  |
| 9 | CC[C@H](C)[C@H](NC(=O)[C@@H](NC(=O)[C@H](CC(C)C)NC(=O)[C@H](CCCCN)NC(=O)[C@H](C)NC(=O)[C@@H](N)[C@@H](C)O)[C@@H](C)O)C(=O)N[C@@H](CCC(=O)O)C(=O)N[C@@H](CO)C(=O)N[C@H](C(=O)N1CCC[C@H]1C(=O)N[C@@H](Cc1ccccc1)C(=O)N[C@@H](CC(N)=O)C(=O)N[C@H](C(=O)N[C@@H](C)C(=O)N[C@@H](CCC(=O)O)C(=O)O)C(C)C)[C@@H](C)O [Peptide 9019.0106] |  |
| 8 | CC[C@H](C)[C@H](NC(=O)[C@H](CCC(N)=O)NC(=O)[C@H](CCCNC(=N)N)NC(=O)[C@H](CC(N)=O)NC(=O)CNC(=O)[C@H](CC(=O)O)NC(=O)[C@@H](NC(=O)[C@H](CCCNC(=N)N)NC(=O)[C@H](CCC(=O)O)NC(=O)CNC(=O)[C@H](CCCCN)NC(=O)[C@H](Cc1ccc(O)cc1)NC(=O)[C@H](Cc1c[nH]c2ccccc12)NC(=O)[C@H](CO)NC(=O)[C@@H](N)Cc1ccc(O)cc1)C(C)C)C(=O)O [Peptide 9019.0108] |  |
| 10 | CC[C@H](C)[C@H](NC(=O)[C@H](CC(C)C)NC(=O)[C@H](CC(C)C)NC(=O)[C@H](CO)NC(=O)[C@H](C)NC(=O)[C@H](CC(N)=O)NC(=O)[C@@H]1CCCN1C(=O)[C@H](Cc1ccc(O)cc1)NC(=O)[C@@H](NC(=O)[C@@H](NC(=O)[C@H](CCC(=O)O)NC(=O)[C@H](CCCNC(=N)N)NC(=O)CN)[C@@H](C)CC)[C@@H](C)CC)C(=O)N[C@@H](CCC(N)=O)C(=O)N[C@@H](CC(N)=O)C(=O)O [Peptide 9019.0112] |  |
| 11 | CC[C@H](C)[C@H](NC(=O)[C@@H](NC(=O)[C@H](Cc1c[nH]cn1)NC(=O)[C@H](CC(C)C)NC(=O)[C@@H](NC(=O)[C@H](CC(C)C)NC(=O)[C@@H](N)Cc1ccccc1)[C@@H](C)O)C(C)C)C(=O)N[C@@H](CCCCN)C(=O)N[C@@H](CO)C(=O)N[C@@H](CC(=O)O)C(=O)N[C@@H](CC(C)C)C(=O)N[C@H](C(=O)N[C@@H](CC(N)=O)C(=O)N[C@@H](CCC(=O)O)C(=O)N[C@@H](CCC(=O)O)C(=O)O)C(C)C [Peptide 9019.0114] |  |
|  | CC(C)[C@H](NC(=O)[C@H](Cc1ccccc1)NC(=O)[C@H](Cc1c[nH]c2ccccc12)NC(=O)[C@H](CO)NC(=O)[C@H](Cc1ccc(O)cc1)NC(=O)[C@@H](N)CCC(N)=O)C(=O)N[C@@H](CC(N)=O)C(=O)NCC(=O)N[C@H](C(=O)N[C@@H](Cc1ccccc1)C(=O)N[C@@H](CCC(N)=O)C(=O)N[C@@H](CCC(N)=O)C(=O)N[C@@H](CO)C(=O)N[C@H](C(=O)N[C@@H](CCC(N)=O)C(=O)O)[C@@H](C)O)[C@@H](C)O [Peptide 9019.0122] | IC50 (purified HLA DRB1*0401): 21 nM; IC50 (purified HLA DRB1*1101): 230 nM; IC50 (purified HLA DRB1*1501): > 20000 nM |
| 9 | CC[C@H](C)[C@H](NC(=O)[C@H](CC(N)=O)NC(=O)[C@@H]1CCCN1C(=O)[C@@H](NC(=O)[C@H](Cc1ccccc1)NC(=O)[C@H](CC(C)C)NC(=O)[C@H](CCC(=O)O)NC(=O)[C@@H](N)CCC(N)=O)[C@@H](C)CC)C(=O)N[C@H](C(=O)N[C@H](C(=O)N[C@@H](CC(N)=O)C(=O)N[C@@H](CC(N)=O)C(=O)N[C@@H](CO)C(=O)NCC(=O)N[C@@H](CO)C(=O)O)C(C)C)[C@@H](C)O [Peptide 9019.0123] |  |
|  | CC[C@H](C)[C@H](NC(=O)[C@@H](NC(=O)[C@@H](NC(=O)[C@@H](NC(=O)[C@@H](NC(=O)[C@@H](NC(=O)[C@@H](N)CCCNC(=N)N)[C@@H](C)O)[C@@H](C)O)C(C)C)[C@@H](C)O)[C@@H](C)O)C(=O)N[C@H](C(=O)N[C@H](C(=O)N[C@@H](Cc1ccc(O)cc1)C(=O)N[C@@H](C)C(=O)N[C@@H](CCC(=O)O)C(=O)N1CCC[C@H]1C(=O)N1CCC[C@H]1C(=O)N[C@@H](CCCCN)C(=O)O)C(C)C)[C@@H](C)O [Peptide 9019.0124] | IC50 (purified HLA DRB1*0405): 32 nM; IC50 (purified HLA DRB1*1101): > 20000 nM; IC50 (purified HLA DRB1*1501): 83 nM |
| 10 | CC(C)C[C@H](NC(=O)[C@@H](N)Cc1ccc(O)cc1)C(=O)N[C@@H](Cc1c[nH]c2ccccc12)C(=O)N[C@@H](Cc1c[nH]c2ccccc12)C(=O)N[C@H](C(=O)N[C@@H](CC(N)=O)C(=O)N[C@@H](CC(N)=O)C(=O)N[C@@H](CCC(N)=O)C(=O)N[C@@H](CO)C(=O)N[C@@H](CC(C)C)C(=O)N1CCC[C@H]1C(=O)N[C@H](C(=O)N[C@@H](CO)C(=O)N1CCC[C@H]1C(=O)N[C@@H](CCCNC(=N)N)C(=O)O)C(C)C)C(C)C [Peptide 9019.0126] |  |
|  | CC[C@H](C)[C@H](NC(=O)[C@@H](NC(=O)[C@@H]1CCCN1C(=O)[C@H](CC(=O)O)NC(=O)[C@@H](N)CO)C(C)C)C(=O)N[C@@H](CC(C)C)C(=O)N[C@@H](CC(N)=O)C(=O)N[C@H](C(=O)N[C@@H](CC(C)C)C(=O)N[C@@H](Cc1ccc(O)cc1)C(=O)NCC(=O)N1CCC[C@H]1C(=O)N[C@@H](CC(=O)O)C(=O)N[C@@H](CC(=O)O)C(=O)N1CCC[C@H]1C(=O)O)C(C)C [Peptide 9019.0127] | IC50 (purified HLA DRB1*1501): 5700 nM; IC50 (purified HLA DRB5*0101): > 20000 nM |
| 10 | CC(C)C[C@H](NC(=O)[C@H](CO)NC(=O)[C@H](CC(C)C)NC(=O)[C@H](CC(N)=O)NC(=O)[C@@H](NC(=O)CNC(=O)[C@@H]1CCCN1C(=O)[C@H](CCCNC(=N)N)NC(=O)[C@H](Cc1ccc(O)cc1)NC(=O)[C@H](Cc1ccc(O)cc1)NC(=O)[C@@H](NC(=O)[C@H](Cc1ccc(O)cc1)NC(=O)[C@@H](N)CO)[C@@H](C)O)C(C)C)C(=O)N[C@@H](CO)C(=O)N[C@@H](CS)C(=O)O [Peptide 9019.0128] |  |

| SMILES | Total XRN [1] | other results |
| --- | --- | --- |
| CC[C@H](C)[C@H](NC(=O)[C@@H](NC(=O)[C@@H](NC(=O)[C@H](Cc1ccccc1)NC(=O)[C@H](CCCNC(=N)N)NC(=O)[C@H](CCC(N)=O)NC(=O)[C@@H]1CCCN1C(=O)[C@H](CC(=O)O)NC(=O)[C@H](CCCNC(=N)N)NC(=O)[C@H](C)NC(=O)[C@H](CCSC)NC(=O)[C@H](CCCNC(=N)N)NC(=O)[C@H](CO)NC(=O)[C@@H](N)Cc1ccccc1)C(C)C)C(C)C)C(=O)N[C@@H](CCC(N)=O)C(=O)O [Peptide 9019.0004] | 10 |  |
